Measurements from patent US20100197591A1, “4-AMINO-7,8-DIHYDROPYRIDO[4,3-d]PYRIMIDIN-5(6H)-ONE DERIVATIVES” (pfizer Inc, priority 2009, published 2010).

Assays:
[1] = target: T1, Human full-length diacylglycerol:acylCoA acyltransferase 1 (DGAT-1) (Homo sapiens, UniProt O75907); assay: DGAT-1 Reduced Microsome Multidose Assay, G7829E Human IC50; format: biochemical; details: crude membrane fraction of Sf9 cells expressing human DGAT-1; [14C]decanoylCoA; terminated with 5 μl of 1.4% phosphoric acid instead of HCl; average where tested more than once
T1 construct: Human full-length diacylglycerol:acylCoA acyltransferase 1 (DGAT-1) was expressed in Sf9 insect cells; made in house; host or cells: Sf9 insect cells (baculovirus); crude membrane/microsome fraction
T1 sequence (O75907 1-488): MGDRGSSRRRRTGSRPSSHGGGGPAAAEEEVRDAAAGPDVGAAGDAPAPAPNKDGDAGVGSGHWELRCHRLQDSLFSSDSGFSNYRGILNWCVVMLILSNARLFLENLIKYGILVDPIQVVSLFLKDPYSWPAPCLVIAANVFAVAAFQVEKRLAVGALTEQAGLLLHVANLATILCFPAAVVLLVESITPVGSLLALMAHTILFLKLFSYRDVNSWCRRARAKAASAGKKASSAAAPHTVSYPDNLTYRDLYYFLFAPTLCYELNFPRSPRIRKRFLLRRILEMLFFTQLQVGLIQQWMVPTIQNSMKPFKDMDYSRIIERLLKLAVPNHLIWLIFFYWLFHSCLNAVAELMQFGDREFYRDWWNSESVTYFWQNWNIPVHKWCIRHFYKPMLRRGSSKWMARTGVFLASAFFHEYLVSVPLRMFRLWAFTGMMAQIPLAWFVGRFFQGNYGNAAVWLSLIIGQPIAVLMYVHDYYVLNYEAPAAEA
Description: (§1) Human full-length diacylglycerol:acylCoA acyltransferase 1 (DGAT-1) was expressed in Sf9 insect cells which are then lysed and a crude membrane fraction (105,000×g pellet) was prepared. The DGAT-1 gene is a human DGAT-1 gene described in J Biol Chem 273:26765 (1998) and U.S. Pat. No. 6,100,077.
(§2) In vitro inhibition of DGAT-1 was measured using a modification, further described below, of the assay methodology described in U.S. Pat. No. 6,994,956 B2.
(§3) The cells were cultured as follows. Sf9 cells (20 L) were infected with 4 mL of DGAT-1 Baculovirus Infected Insect Cells (BIIC) for 72 hours in a Wave Bioreactor System 20/50P (Wave Biotec/GE Healthcare).
(§4) Crude DGAT-1 microsomes were prepared as follows. Cell pellets were washed once with ice-cold Dulbecco's phosphate-buffered saline. Cells were collected in tabletop centrifuge (Beckman GS-6KR), 15 minutes, 2000×g, 4° C. Twenty (20) mL of ice-cold Microsome Buffer (MB) was added per 5 g of cell pellet. The suspension was passed through a microfluidizer 3 times (18K psi). The lysate was transferred to centrifuge tubes and centrifuged for 20 minutes at 5000×g (Beckman-Coulter, Inc. Allegra® 64R High-Speed Refrigerated Benchtop Centrifuge, F0650 rotor) at 4° C. The supernatant was transferred to ultracentrifuge tubes and centrifuged at 125,000×g for 1 hour in a Beckman Ti-45 rotor, 4° C. The supernatant fluid was discarded. The pellet was resuspended in 70 mL of MB by sonication. The microsome concentration was determined using Bio-Rad Protein DC Protein Assay. The microsomes were filter sterilized with a 0.22 μm filter. The samples were portioned, flash frozen and stored at −80° C.
(§5) The Microsome Buffer, used for microsome preparation, was prepared by conventional means and contained 125 mM sucrose, 3 mM imidazole, 0.2 μg/mL aprotinin, 0.2 μg/mL leupeptin and 5 mM dithiothreitol (Cleland's reagent), DGAT-1 activity was measured in 384-well format in a total assay volume of 25 μl that contained, Hepes buffer (50 mM, pH 7.5), MgCl2 (10 mM), bovine serum albumin (0.6 mg/ml), [^14C]decanoylCoA (20 μM, 58 Ci/mol) and membranes (25 μg/ml) into which 1,2 dioleoyl-sn-glycerol (75 μM) in acetone has already been incorporated. Inhibitors in DMSO were pre-incubated with membranes before initiating the DGAT-1 reaction by the addition of decanoylCoA. […] The DMSO concentration was 2.5%. The inhibitors were present at a range of eight concentrations to generate an apparent IC50 for each compound. The eight inhibitor concentration employed ranged from 10 μM to 3 nM (from high to low concentration). Specifically, the eight concentrations used were 10 μM, 3 μM, 1 μM, 300 nM, 100 nM, 30 nM, 10 nM and 3 nM.
(§6) Reaction mixtures were neutralized by the addition of 15 μl of tris(hydroxy-methyl)aminomethane (1M, pH 8.0) and then mixed by trituration with 37.5 μl of Microscint™-E (Perkin Elmer). Plates contents were allowed to partition for 15 to 30 min before ^14C was measured in a scintillation spectrometer (Wallac Microbeta Trilux 1450-030 liquid scintillation counter 12 detector in the top-count DPM mode). Percent inhibition of test compounds was computed as […].
(§7) Four separate assays were performed using 4 different methods of analysis. The method of analysis of Assay 1 was the same as Assay 4 (described above) except microsomes were utilized at 25 μg/mL instead of 5 μg/mL. The method of analysis of Assay 2 was the same as Assay 4 (described above) except eleven (11) concentrations of inhibitor were employed instead of eight (8). The method of analysis of Assay 3 was the same as Assay 2 except the compounds were serially diluted in a different laboratory.
(§8) Where this DGAT-1 inhibition assay was performed on a compound more than once, an average is provided for that compound.

[2] = target: T1, Human full-length diacylglycerol:acylCoA acyltransferase 1 (DGAT-1); assay: DGAT-1 Reduced Microsome Multidose Assay, G7329F Human IC50; format: biochemical; details: crude membrane fraction of Sf9 cells expressing human DGAT-1; [14C]decanoylCoA; apparent IC50, average where tested more than once
Description: as §1, §2, §3, §4, §5, §6, §7, §8

| IC50 [1] | IC50 [2] | Compound |
| --- | --- | --- |
| 192 nM | – | COc1nc(N)c2c(n1)CCN(c1ccc(C(=O)C(C)(C)C)cc1)C2=O [Example 1F, 4-amino-6-[4-(2,2-dimethylpropanoyl)phenyl]-2-methoxy-7,8-dihydropyrido[4,3-d]pyrimidin-5(6H)-one] |
| 831 nM | – | COc1nc(N)c2c(n1)CCN(c1cccc(C(C)(C)CO)c1)C2=O [Example 1K, 4-amino-6-[3-(2-hydroxy-1,1-dimethylethyl)phenyl]-2-methoxy-7,8-dihydropyrido[4,3-d]pyrimidin-5(6H)-one] |
| 34.8 nM | – | COc1nc(N)c2c(n1)CCN(c1ccc(C(C)(C)c3ncco3)cc1)C2=O [Example 1L, 4-amino-2-methoxy-6-{4-[1-methyl-1-(1,3-oxazol-2-yl)ethyl]phenyl}-7,8-dihydropyrido[4,3-d]pyrimidin-5(6H)-one] |
| 11.3 nM | – | COc1nc(N)c2c(n1)CCN(c1ccc(C(C)(C)c3cnco3)cc1)C2=O [Example 1M, 4-amino-2-methoxy-6-{4-[1-methyl-1-(1,3-oxazol-5-yl)ethyl]phenyl}-7,8-dihydropyrido[4,3-d]pyrimidin-5(6H)-one] |
| 31.9 nM | – | COc1nc(N)c2c(n1)CCN(c1ccc(C(C)(C)c3cc[nH]n3)cc1)C2=O [Example 1N, 4-amino-2-methoxy-6-{4-[1-methyl-1-(1H-pyrazol-3-yl)ethyl]phenyl}-7,8-dihydropyrido[4,3-d]pyrimidin-5(6H)-one] |
| 44.3 nM | – | COc1nc(N)c2c(n1)CCN(c1ccc(CC(C)(C)O)cc1)C2=O [Example 1S, 4-amino-6-[4-(2-hydroxy-2-methylpropyl)phenyl]-2-methoxy-7,8-dihydropyrido[4,3-d]pyrimidin-5(6H)-one] |
| 229 nM | – | COc1nc(N)c2c(n1)CCN(c1ccc3c(c1)COC3(C)C)C2=O [Example 1U, 4-amino-6-(1,1-dimethyl-1,3-dihydro-2-benzofuran-5-yl)-2-methoxy-7,8-dihydropyrido[4,3-d]pyrimidin-5(6H)-one] |
| 113 nM | – | COc1nc(N)c2c(n1)CCN(c1ccc(C3(O)CCCCC3)cc1)C2=O [Example 1V, 4-amino-6-[4-(1-hydroxycyclohexyl)phenyl]-2-methoxy-7,8-dihydropyrido[4,3-d]pyrimidin-5(6H)-one] |
| 34 nM | – | CCC(O)(CC)c1ccc(N2CCc3nc(OC)nc(N)c3C2=O)cc1 [Example 1W, 4-amino-6-[4-(1-ethyl-1-hydroxypropyl)phenyl]-2-methoxy-7,8-dihydropyrido[4,3-d]pyrimidin-5(6H)-one] |
| 55 nM | – | COc1nc(N)c2c(n1)CCN(c1ccc(C(C)(C)c3ccon3)cc1)C2=O [Example 3B, 4-amino-6-[4-(1-isoxazol-3-yl-1-methylethyl)phenyl]-2-methoxy-7,8-dihydropyrido[4,3-d]pyrimidin-5(6H)-one] |
| 4.5 nM | – | COc1nc(N)c2c(n1)CCN(c1ccc(C(C)(C)c3ccno3)cc1)C2=O [Example 3C, 4-amino-6-[4-(1-isoxazol-5-yl-1-methylethyl)phenyl]-2-methoxy-7,8-dihydropyrido[4,3-d]pyrimidin-5(6H)-one] |
| 95.3 nM | – | COc1nc(N)c2c(n1)CCN(c1ccc(C(C)(C)c3nnnn3C)cc1)C2=O [Example 3Q, 4-amino-2-methoxy-6-{4-[1-methyl-1-(1-methyl-1H-tetrazol-5-yl)ethyl]phenyl}-7,8-dihydropyrido[4,3-d]pyrimidin-5(6H)-one] |
| – | 115 nM | COc1nc(N)c2c(n1)CCN(c1ccc(OCC3CC3)cc1)C2=O [Example 9H, 4-amino-6-[4-(cyclopropylmethoxy)phenyl]-2-methoxy-7,8-dihydropyrido[4,3-d]pyrimidin-5(6H)-one] |
| – | 1400 nM | COc1nc(N)c2c(n1)CCN(c1ccc3nc[nH]c3c1)C2=O [Example 9J, 4-amino-6-(1H-benzimidazol-6-yl)-2-methoxy-7,8-dihydropyrido[4,3-d]pyrimidin-5(6H)-one] |
| – | 63.2 nM | COc1nc(N)c2c(n1)CCN(c1ccc(C3(C)CCCO3)cc1)C2=O (centres unmarked) [Example 9K, 4-amino-2-methoxy-6-[4-(2-methyltetrahydrofuran-2-yl)phenyl]-7,8-dihydropyrido[4,3-d]pyrimidin-5(6H)-one] |
| – | 77.4 nM | COc1nc(N)c2c(n1)CCN(c1ccc(CCC(F)(F)F)cc1)C2=O [Example 9L, 4-amino-2-methoxy-6-[4-(3,3,3-trifluoropropyl)phenyl]-7,8-dihydropyrido[4,3-d]pyrimidin-5(6H)-one] |
| – | 23.9 nM | COc1nc(N)c2c(n1)CCN(c1ccc(SC(C)(C)C)cc1)C2=O [Example 9N, 4-amino-6-[4-(tert-butylthio)phenyl]-2-methoxy-7,8-dihydropyrido[4,3-d]pyrimidin-5(6H)-one] |
| – | 648 nM | COc1nc(N)c2c(n1)CCN(c1ccc([S+]([O-])C(C)(C)C)cc1)C2=O (centres unmarked) [Example 9O, 4-amino-6-[4-(tert-butylsulfinyl)phenyl]-2-methoxy-7,8-dihydropyrido[4,3-d]pyrimidin-5(6H)-one] |
| – | 784 nM | COc1nc(N)c2c(n1)CCN(c1ccc(S(=O)(=O)C(C)(C)C)cc1)C2=O [Example 9P, 4-amino-6-[4-(tert-butylsulfonyl)phenyl]-2-methoxy-7,8-dihydropyrido[4,3-d]pyrimidin-5(6H)-one] |
| – | 58.8 nM | COc1nc(N)c2c(n1)CCN(c1ccc(C(O)C(C)(C)C)cc1)C2=O (centres unmarked) [Example 10A, 4-amino-6-[4-(1-hydroxy-2,2-dimethylpropyl)phenyl]-2-methoxy-7,8-dihydropyrido[4,3-d]pyrimidin-5(6H)-one] |
| – | 27.9 nM | COc1nc(N)c2c(n1)CCN(c1ccc(C(OC)C(C)(C)C)cc1)C2=O (centres unmarked) [Example 10D, 4-amino-2-methoxy-6-[4-(1-methoxy-2,2-dimethylpropyl)phenyl]-7,8-dihydropyrido[4,3-d]pyrimidin-5(6H)-one] |
| – | 117 nM | CC(C)(C)c1ccc(N2CCc3ncnc(N)c3C2=O)cc1 [Example 11A, 4-amino-6-(4-tert-butylphenyl)-7,8-dihydropyrido[4,3-d]pyrimidin-5(6H)-one] |

| Compound | IC50 [1] | IC50 [2] |
| --- | --- | --- |
| COc1nc(N)c2c(n1)CCN(c1ccc(OCC(C)C)cc1)C2=O [Example 9I, 4-amino-6-(4-isobutoxyphenyl)-2-methoxy-7,8-dihydropyrido[4,3-d]pyrimidin-5(6H)-one] | – | 84.1 nM |
